Columns and labels:
Assay in all cases: relative viability (nuclei count vs DMSO), 5 days (fraction); higher = more cells survive
LC-2-ad = system: LC-2-ad
Outline: (§1)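 Values are medians from duplicate plates. Each reflects relative viability, defined as the nuclei count of treated wells over that of vehicle wells. Lung cancer cell lines in 1536-well plates were pin-tool dosed one day after seeding with one drug alone or with a fixed anchor-drug dose plus five library-drug doses (not always all listed) in √10 steps, then fixed, stained and imaged at 4× after 5 days.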

NCI-H441 = system: NCI-H441
Outline: as §1

NCI-H596 = system: NCI-H596
Outline: as §1

NCI-H1915 = system: NCI-H1915
Outline: as §1

CAL-12T = system: CAL-12T
Outline: as §1

NCI-H520 = system: NCI-H520
Outline: as §1

NCI-H727 = system: NCI-H727
Outline: as §1

NCI-H2087 = system: NCI-H2087
Outline: as §1

H3255 = system: H3255
Outline: as §1

NCI-H1651 = system: NCI-H1651
Outline: as §1

A-427 = system: A-427
Outline: as §1

ABC-1 = system: ABC-1
Outline: as §1

NCI-H650 = system: NCI-H650
Outline: as §1

BEN = system: BEN
Outline: as §1

NCI-H1650 = system: NCI-H1650
Outline: as §1

NCI-H1944 = system: NCI-H1944
Outline: as §1

NCI-H661 = system: NCI-H661
Outline: as §1

LCLC-97TM1 = system: LCLC-97TM1
Outline: as §1

NCI-H460 = system: NCI-H460
Outline: as §1

NCI-H2023 = system: NCI-H2023
Outline: as §1

PC-3 [JPC-3] = system: PC-3 [JPC-3]
Outline: as §1

201T = system: 201T
Outline: as §1

COc1nc(C)cnc1NS(=O)(=O)c1cccnc1-c1ccc(-c2nnco2)cc1 [Zibotentan] + Cc1nc(Nc2ncc(C(=O)Nc3c(C)cccc3Cl)s2)cc(N2CCN(CCO)CC2)n1 [Dasatinib] (partner 0.075 µM)
relative viability (LC-2-ad; first compound 0.08 µM): 0.688 | relative viability (LC-2-ad; first compound 0.8 µM): 0.625 | relative viability (LC-2-ad; first compound 2.53 µM): 0.511 | relative viability (NCI-H441; first compound 0.08 µM): 0.715 | relative viability (NCI-H441; first compound 0.253 µM): 0.476 | relative viability (NCI-H441; first compound 0.8 µM): 0.679 | relative viability (NCI-H441; first compound 2.53 µM): 0.677 | relative viability (NCI-H596; first compound 0.08 µM): 0.68 | relative viability (NCI-H596; first compound 0.253 µM): 0.549 | relative viability (NCI-H596; first compound 0.8 µM): 0.538 | relative viability (NCI-H596; first compound 2.53 µM): 0.561 | relative viability (NCI-H1915; first compound 0.08 µM): 0.382 | relative viability (NCI-H1915; first compound 0.253 µM): 0.29 | relative viability (NCI-H1915; first compound 0.8 µM): 0.336 | relative viability (NCI-H1915; first compound 2.53 µM): 0.29 | relative viability (CAL-12T; first compound 0.08 µM): 0.484 | relative viability (CAL-12T; first compound 0.253 µM): 0.473 | relative viability (CAL-12T; first compound 0.8 µM): 0.34 | relative viability (CAL-12T; first compound 2.53 µM): 0.479 | relative viability (NCI-H520; first compound 0.08 µM): 0.252 | relative viability (NCI-H520; first compound 0.253 µM): 0.222 | relative viability (NCI-H520; first compound 0.8 µM): 0.224 | relative viability (NCI-H520; first compound 2.53 µM): 0.237 | relative viability (NCI-H727; first compound 0.08 µM): 0.333 | relative viability (NCI-H727; first compound 0.253 µM): 0.251 | relative viability (NCI-H727; first compound 0.8 µM): 0.279 | relative viability (NCI-H727; first compound 2.53 µM): 0.372 | relative viability (NCI-H2087; first compound 0.08 µM): 0.851 | relative viability (NCI-H2087; first compound 0.253 µM): 0.573 | relative viability (NCI-H2087; first compound 0.8 µM): 0.923 | relative viability (NCI-H2087; first compound 2.53 µM): 0.814 | relative viability (H3255; first compound 0.08 µM): 0.406 | relative viability (H3255; first compound 0.253 µM): 0.311 | relative viability (H3255; first compound 0.8 µM): 0.632 | relative viability (H3255; first compound 2.53 µM): 0.325 | relative viability (NCI-H1651; first compound 0.08 µM): 0.462 | relative viability (NCI-H1651; first compound 0.253 µM): 0.318 | relative viability (NCI-H1651; first compound 0.8 µM): 0.445 | relative viability (NCI-H1651; first compound 2.53 µM): 0.451 | relative viability (A-427; first compound 0.08 µM): 0.908 | relative viability (A-427; first compound 0.253 µM): 0.69 | relative viability (A-427; first compound 0.8 µM): 0.7 | relative viability (A-427; first compound 2.53 µM): 0.828 | relative viability (ABC-1; first compound 0.08 µM): 0.568 | relative viability (ABC-1; first compound 0.253 µM): 0.572 | relative viability (ABC-1; first compound 0.8 µM): 0.548 | relative viability (ABC-1; first compound 2.53 µM): 0.556 | relative viability (NCI-H650; first compound 0.08 µM): 0.49 | relative viability (NCI-H650; first compound 0.253 µM): 0.418 | relative viability (NCI-H650; first compound 0.8 µM): 0.46 | relative viability (NCI-H650; first compound 2.53 µM): 0.468 | relative viability (BEN; first compound 0.08 µM): 0.289 | relative viability (BEN; first compound 0.253 µM): 0.32 | relative viability (BEN; first compound 0.8 µM): 0.316 | relative viability (BEN; first compound 2.53 µM): 0.353 | relative viability (NCI-H1650; first compound 0.08 µM): 0.35 | relative viability (NCI-H1650; first compound 0.8 µM): 0.27 | relative viability (NCI-H1650; first compound 2.53 µM): 0.4 | relative viability (NCI-H1944; first compound 0.08 µM): 0.193 | relative viability (NCI-H1944; first compound 0.253 µM): 0.211 | relative viability (NCI-H1944; first compound 0.8 µM): 0.221 | relative viability (NCI-H1944; first compound 2.53 µM): 0.224 | relative viability (NCI-H661; first compound 0.08 µM): 0.924 | relative viability (NCI-H661; first compound 0.253 µM): 0.805 | relative viability (NCI-H661; first compound 0.8 µM): 0.943 | relative viability (NCI-H661; first compound 2.53 µM): 0.939 | relative viability (LCLC-97TM1; first compound 0.08 µM): 0.823 | relative viability (LCLC-97TM1; first compound 0.253 µM): 0.841 | relative viability (LCLC-97TM1; first compound 0.8 µM): 0.882 | relative viability (LCLC-97TM1; first compound 2.53 µM): 0.861 | relative viability (NCI-H460; first compound 0.08 µM): 0.559 | relative viability (NCI-H460; first compound 0.253 µM): 0.391 | relative viability (NCI-H460; first compound 0.8 µM): 0.504 | relative viability (NCI-H460; first compound 2.53 µM): 0.602 | relative viability (NCI-H2023; first compound 0.08 µM): 0.568 | relative viability (NCI-H2023; first compound 0.253 µM): 0.339 | relative viability (NCI-H2023; first compound 0.8 µM): 0.476 | relative viability (NCI-H2023; first compound 2.53 µM): 0.64 | relative viability (PC-3 [JPC-3]; first compound 0.08 µM): 0.989 | relative viability (PC-3 [JPC-3]; first compound 0.253 µM): 1.02 | relative viability (PC-3 [JPC-3]; first compound 0.8 µM): 1.01 | relative viability (PC-3 [JPC-3]; first compound 2.53 µM): 1.12 | relative viability (201T; first compound 0.08 µM): 0.676 | relative viability (201T; first compound 0.253 µM): 0.569 | relative viability (201T; first compound 0.8 µM): 0.576 | relative viability (201T; first compound 2.53 µM): 0.624
